17 compounds from US10233188B2, “CDK2/4/6 inhibitors” (priority 2016, dated 2019) can be followed below.

One test concerns the target CDK2/Cyclin E1 (Homo sapiens (Human), UniProt P24941). As to the kind of experiment: biochemical. The settings on record: CDK2_Ki (nM), phosphorylated CDK2/Cyclin E1, 150 μM ATP, Morrison tight-binding fit.
The target of the next test is CDK6/Cyclin D1 (Homo sapiens (Human), UniProt Q00534). The experiment in a line: biochemical. The note with it: CDK6_Ki (nM), non-phosphorylated CDK6/Cyclin D1, 2 mM ATP, Morrison fit.
Chain of CDK6/Cyclin D1 (Q00534 whole entry): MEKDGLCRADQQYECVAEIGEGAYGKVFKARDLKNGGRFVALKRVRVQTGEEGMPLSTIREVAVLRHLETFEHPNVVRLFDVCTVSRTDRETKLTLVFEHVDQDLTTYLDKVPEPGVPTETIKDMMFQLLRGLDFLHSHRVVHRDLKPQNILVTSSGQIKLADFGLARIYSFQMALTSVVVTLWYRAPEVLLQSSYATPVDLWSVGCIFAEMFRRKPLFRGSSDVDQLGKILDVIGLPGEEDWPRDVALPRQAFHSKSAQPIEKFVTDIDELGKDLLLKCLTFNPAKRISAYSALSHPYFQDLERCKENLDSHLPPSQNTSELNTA
Chain of CDK6/Cyclin D1 (P24385 whole entry partner): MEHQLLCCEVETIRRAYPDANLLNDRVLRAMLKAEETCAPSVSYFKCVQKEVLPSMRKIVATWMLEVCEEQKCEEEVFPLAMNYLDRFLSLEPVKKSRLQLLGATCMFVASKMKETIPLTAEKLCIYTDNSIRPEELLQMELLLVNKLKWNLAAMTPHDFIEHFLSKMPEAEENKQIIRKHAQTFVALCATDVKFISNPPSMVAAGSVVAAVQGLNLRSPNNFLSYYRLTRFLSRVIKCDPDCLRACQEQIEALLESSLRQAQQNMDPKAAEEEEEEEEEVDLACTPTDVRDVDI

Description for CDK2/Cyclin E1: The assay was initiated with the addition of ATP, following a fifteen minutes pre-incubation of enzyme and inhibitor at room temperature in the reaction mixture. The reaction was stopped after 45 minutes at room temperature by the addition of 50 μL of 80 mM EDTA, pH 7.5.

A word on the Ki: it is a dissociation constant, usually derived from enzyme kinetics or from competition with a known ligand. `COC(C)(C)CNS(=O)(=O)N1CCC(Nc2ncc3ccc(=O)n([C@H]4CCC[C@]4(C)O)c3n2)CC1` (single isomer, unassigned) [Example 61, (+)-4-({8-[(1R*,2R*)-2-hydroxy-2-methylcyclopentyl]-7-oxo-7,8-dihydropyrido[2,3-d]pyrimidin-2-yl}amino)-N-(2-methoxy-2-methylpropyl)piperidine-1-sulfonamide]: the Ki was 4.55 nM at CDK2/Cyclin E1 and 19.7 nM at CDK6/Cyclin D1.

On to `CC(F)(F)CNS(=O)(=O)N1CCC(Nc2ncc3ccc(=O)n([C@@H]4CCC[C@@]4(C)O)c3n2)CC1` (single isomer, unassigned) [Example 66, (−)-N-(2,2-difluoropropyl)-4-({8-[(1R*,2R*)-2-hydroxy-2-methylcyclopentyl]-7-oxo-7,8-dihydropyrido[2,3-d]pyrimidin-2-yl}amino)piperidine-1-sulfonamide], for which the results for the inhibition constant (Ki) on CDK2/Cyclin E1 and on CDK6/Cyclin D1 were 0.21 nM and 2.47 nM, respectively.

Take `CC(F)(F)CNS(=O)(=O)N1CCC(Nc2ncc3ccc(=O)n([C@H]4CCC[C@]4(C)O)c3n2)CC1` (single isomer, unassigned) [Example 67, (+)-N-(2,2-difluoropropyl)-4-({8-[(1R*,2R*)-2-hydroxy-2-methylcyclopentyl]-7-oxo-7,8-dihydropyrido[2,3-d]pyrimidin-2-yl}amino)piperidine-1-sulfonamide]: the Ki on CDK2/Cyclin E1 is 4.05 nM; on CDK6/Cyclin D1, 21.6 nM.

On to `C[C@@]1(O)CCC[C@H]1n1c(=O)ccc2cnc(NC3CCN(S(=O)(=O)NC4CCOCC4)CC3)nc21` (single isomer, unassigned) [Example 68, (−)-4-({8-[(1R*,2R*)-2-hydroxy-2-methylcyclopentyl]-7-oxo-7,8-dihydropyrido[2,3-d]pyrimidin-2-yl}amino)-N-(tetrahydro-2H-pyran-4-yl)piperidine-1-sulfonamide], for which the Ki was 0.41 nM at CDK2/Cyclin E1 and 3.23 nM on CDK6/Cyclin D1.

With `C[C@]1(O)CCC[C@@H]1n1c(=O)ccc2cnc(NC3CCN(S(=O)(=O)NC4CCOCC4)CC3)nc21` (single isomer, unassigned) [Example 69, (+)-4-({8-[(1R*,2R*)-2-hydroxy-2-methylcyclopentyl]-7-oxo-7,8-dihydropyrido[2,3-d]pyrimidin-2-yl}amino)-N-(tetrahydro-2H-pyran-4-yl)piperidine-1-sulfonamide], the figures for the Ki on CDK2/Cyclin E1 and on CDK6/Cyclin D1 were 4.48 nM and 22.2 nM, respectively.

For `C[C@@]1(O)CCC[C@H]1n1c(=O)ccc2cnc(NC3CCN(S(=O)(=O)C4CCS(=O)(=O)C4)CC3)nc21` (single isomer, unassigned) [Example 70], the Ki came out at 0.35 nM on CDK2/Cyclin E1 and 0.83 nM on CDK6/Cyclin D1.

Take `COCCS(=O)(=O)N1CCC(Nc2ncc3ccc(=O)n([C@@H]4CCCC4(C)O)c3n2)CC1` (single isomer, unassigned) [Example 72, (−)-8-[(1R*,2R*)-2-hydroxy-2-methylcyclopentyl]-2-({1-[(2-methoxyethyl)sulfonyl]piperidin-4-yl}amino)pyrido[2,3-d]pyrimidin-7(8H)-one]: the values for the Ki on CDK2/Cyclin E1 and at CDK6/Cyclin D1 were 0.42 nM and 1.09 nM, respectively.

In the case of `COCCS(=O)(=O)N1CCC(Nc2ncc3ccc(=O)n([C@H]4CCC[C@]4(C)O)c3n2)CC1` (single isomer, unassigned) [Example 73, (+)-8-[(1R*,2R*)-2-hydroxy-2-methylcyclopentyl]-2-({1-[(2-methoxyethyl)sulfonyl]piperidin-4-yl}amino)pyrido[2,3-d]pyrimidin-7(8H)-one], the Ki was 5.03 nM on CDK2/Cyclin E1 and 8.95 nM on CDK6/Cyclin D1.

On to `C[C@@]1(O)CCC[C@H]1n1c(=O)ccc2cnc(NC3CCN(S(=O)(=O)C4CC4)CC3)nc21` (single isomer, unassigned) [Example 74, (−)-2-{[1-(cyclopropylsulfonyl)piperidin-4-yl]amino}-8-[(1R*,2R*)-2-hydroxy-2-methylcyclopentyl]pyrido[2,3-d]pyrimidin-7(8H)-one], for which the inhibition constant (Ki) at CDK2/Cyclin E1 amounted to 0.2 nM; on CDK6/Cyclin D1, 1.01 nM.

As to `C[C@]1(O)CCC[C@@H]1n1c(=O)ccc2cnc(NC3CCN(S(=O)(=O)C4CC4)CC3)nc21` (single isomer, unassigned) [Example 75, (+)-2-{[1-(cyclopropylsulfonyl)piperidin-4-yl]amino}-8-[(1R*,2R*)-2-hydroxy-2-methylcyclopentyl]pyrido[2,3-d]pyrimidin-7(8H)-one], the Ki on CDK2/Cyclin E1 came out at 3.85 nM; at CDK6/Cyclin D1, 4.96 nM.

As to `CCS(=O)(=O)N1CCC(Nc2ncc3ccc(=O)n([C@@H]4CCC[C@@]4(C)O)c3n2)CC1` (single isomer, unassigned) [Example 76, (−)-2-{[1-(ethylsulfonyl)piperidin-4-yl]amino}-8-[(1R*,2R*)-2-hydroxy-2-methylcyclopentyl]pyrido[2,3-d]pyrimidin-7(8H)-one], the figures for the Ki on CDK2/Cyclin E1 and on CDK6/Cyclin D1 were 0.21 nM and 1.24 nM, respectively.

Turning to `CCS(=O)(=O)N1CCC(Nc2ncc3ccc(=O)n([C@H]4CCC[C@]4(C)O)c3n2)CC1` (single isomer, unassigned) [Example 77, (+)-2-{[1-(ethylsulfonyl)piperidin-4-yl]amino}-8-[(1R*,2R*)-2-hydroxy-2-methylcyclopentyl]pyrido[2,3-d]pyrimidin-7(8H)-one], the inhibition constant (Ki) was determined as 4.07 nM at CDK2/Cyclin E1 and 6.6 nM at CDK6/Cyclin D1.

With `C[C@@]1(O)CCC[C@H]1n1c(=O)ccc2cnc(NC3CCN(S(=O)(=O)c4nccs4)CC3)nc21` (single isomer, unassigned) [Example 78, (−)-8-[(1R*,2R*)-2-hydroxy-2-methylcyclopentyl]-2-{[1-(1,3-thiazol-2-ylsulfonyl)piperidin-4-yl]amino}pyrido[2,3-d]pyrimidin-7(8H)-one], the Ki stood at 0.25 nM on CDK2/Cyclin E1 and 1.63 nM at CDK6/Cyclin D1.

As for `C[C@]1(O)CCC[C@@H]1n1c(=O)ccc2cnc(NC3CCN(S(=O)(=O)c4nccs4)CC3)nc21` (single isomer, unassigned) [Example 79, (+)-8-[(1R*,2R*)-2-hydroxy-2-methylcyclopentyl]-2-{[1-(1,3-thiazol-2-ylsulfonyl)piperidin-4-yl]amino}pyrido[2,3-d]pyrimidin-7(8H)-one], the Ki is 7.32 nM on CDK2/Cyclin E1 and 9.59 nM on CDK6/Cyclin D1.

For `C[C@@]1(O)CCC[C@H]1n1c(=O)ccc2cnc(NC3CCN(S(=O)(=O)c4nncs4)CC3)nc21` (single isomer, unassigned) [Example 80, (−)-8-[(1R*,2R*)-2-hydroxy-2-methylcyclopentyl]-2-{[1-(1,3,4-thiadiazol-2-ylsulfonyl)piperidin-4-yl]amino}pyrido[2,3-d]pyrimidin-7(8H)-one], the Ki on CDK2/Cyclin E1 came to 0.25 nM; at CDK6/Cyclin D1, 1.53 nM.

`C[C@]1(O)CCC[C@@H]1n1c(=O)ccc2cnc(NC3CCN(S(=O)(=O)c4nncs4)CC3)nc21` (single isomer, unassigned) [Example 81, (+)-8-[(1R*,2R*)-2-hydroxy-2-methylcyclopentyl]-2-{[1-(1,3,4-thiadiazol-2-ylsulfonyl)piperidin-4-yl]amino}pyrido[2,3-d]pyrimidin-7(8H)-one]: the inhibition constant Ki at CDK2/Cyclin E1 was 7.03 nM; on CDK6/Cyclin D1 it was 6.24 nM.

With `Cn1cc(S(=O)(=O)N2CCC(Nc3ncc4ccc(=O)n([C@@H]5CCC[C@@]5(C)O)c4n3)CC2)cn1` (single isomer, unassigned) [Example 82, (−)-8-[(1R*,2R*)-2-hydroxy-2-methylcyclopentyl]-2-({1-[(1-methyl-1H-pyrazol-4-yl)sulfonyl]piperidin-4-yl}amino)pyrido[2,3-d]pyrimidin-7(8H)-one], the Ki on CDK2/Cyclin E1 worked out at 0.1 nM; on CDK6/Cyclin D1 it was 1.21 nM.
